Series [1] concerns human umbilical cord blood derived CD34+ cells. Kind of series: CD34+ cell survival in hypoxia and serum deprived conditions (Annexin V/PI flow cytometry). Type of series: cell-based. The conditions noted are these: for percentage of viable cells: LPA-treated (100 μM). As for the experimental part: In an embodiment, UCB CD34+ cells (1×10^^6 cells/mL) were incubated in X-Vivo media (Lonza) in a hypoxia chamber for 24 h (0.5% of O2 and 5% of CO2), in the presence or absence of pharmacological drugs, for further assessment of cell survival/apoptosis and necrosis by FACS analysis of the expression of annexin V and PI respectively. Preferably, cells were pretreated with the respective drugs for 1 hour before hypoxia, and treatment maintained during hypoxia.
In a preferred embodiment, to identify molecules that promote CD34+ cell survival in hypoxia and serum deprived conditions we developed an assay that uses human umbilical cord blood derived CD34+ cells (2×10^^5 cells per well of a 96-well plate) suspended in X-Vivo medium (used in clinical trials (Schachinger, V., et al., Intracoronary bone marrow-derived progenitor cells in acute myocardial infarction. N Engl J Med, 2006. 355(12): p. 1210-21)) and incubated in a hypoxia chamber at 0.5% O2, at 37° C., for 24 h. Some of the drugs selected have been approved by FDA for the treatment of cardiovascular diseases (e.g. Nebivolol Lombardo, R. M., et al., Effects of nebivolol versus carvedilol on left ventricular function in patients with chronic heart failure and reduced left ventricular systolic function. Am J Cardiovasc Drugs, 2006. 6(4): p. 259-63; Ibersatan Massie, B. M., et al., Irbesartan in patients with heart failure and preserved ejection fraction. N Engl J Med, 2008. 359(23): p. 2456-67), others are being evaluated in pre-clinical/clinical assays to improve heart function in patients/models with heart failure (e.g. INO1001 (Szabo, G., et al., INO-1001 a novel poly(ADP-ribose) polymerase (PARP) inhibitor improves cardiac and pulmonary function after crystalloid cardioplegia and extracorporal circulation. Shock, 2004. 21(5): p. 426-32); erythropoietin (Belonje, A. M., et al., Effects of erythropoietin after an acute myocardial infarction: rationale and study design of a prospective, randomized, clinical trial (HEBE III). Am Heart J, 2008. 155(5): p. 817-22); melatonin (Chen, Z., et al., Protective effect of melatonin on myocardial infarction. Am J Physiol Heart Circ Physiol, 2003. 284(5): p. H1618-24); VX-702 (Ma, X. L., et al., Inhibition of p38 mitogen-activated protein kinase decreases cardiomyocyte apoptosis and improves cardiac function after myocardial ischemia and reperfusion. Circulation, 1999. 99(13): p. 1685-91)), others are natural substances found in the human body (LPA). Cell viability was evaluated by flow cytometry using Annexin V/propidium iodide (PI) staining. Annexin V is a phospholipid-binding protein with specificity for phospatidyl serine, one of the earliest makers of cellular transition to an apoptotic state. This phospholipid is translocated from the inner to the outer leaflet of the plasma membrane (Koopman, G., et al., Annexin V for flow cytometric detection of phosphatidylserine expression on B cells undergoing apoptosis. Blood, 1994. 84(5): p. 1415-20.). PI enters in necrotic cells and binds to double-stranded nucleic acids, but is excluded from cells with normal integrity. According to FIG. 1, untreated CD34+ cells show a very poor survival, with only ˜31% of viable cells, ˜31% of apoptotic cells (Annexin V+/PI−) being the majority of the cells ˜39% at the necrotic stage (PI+). […] LPA (10 μM) was the drug with the highest pro-survival effect (˜69% of viable cells) and therefore further studied (FIGS. 1 and 2A).
Importantly, the percentage of viable cells in CD34+ treated with 1 μM of LPA and cultured under hypoxia conditions is similar to untreated cells cultured under normoxia conditions. The pro-survival effect of LPA decreases as a function of hypoxia time (FIG. 2C). The percentage of viable cells in LPA-treated CD34+ cells decreased from 78% at day 1 to 40% at day 3.

Series [2] concerns CD34+ cells. The series can be described thus: CD34+ cell self-renewal/differentiation by FACS. It is filed as cell-based, human. Particulars: LPA-treated; after 1 day of hypoxia. The protocol:
In an embodiment, multicolor analysis for progenitor and stem cell phenotyping was performed on a FACS Calibur cytometer (preferably, Becton Dickinson). Cells were stained for 1 h with APC or pacific blue antihuman CD45 (preferably, e-Bioscience), FITC anti-mouse CD45 (preferably, -Bioscience), PeCy7 anti-human CD33 (preferably, BD Bioscience), PE anti-human CD11b (preferably, BD Bioscience), FITC anti-human CD19 (preferably, BD Bioscience), PeCy7 anti-human CD3 (preferably, BD Bioscience), PE anti-human Glycophorin A (preferably, BD Bioscience), FITC anti-human CD41 (preferably, e-bioscience), and PeCy7 anti-human CD56 (preferably, BD Bioscience), washed with staining media and analyzed.
To examine the effect of LPA in CD34+ cell self-renewal/differentiation, untreated and LPA-treated CD34+ cells were cultured in X-vivo medium in hypoxia conditions for 1 day followed or not by 6 days in normoxia and finally characterized by FACS. After 1 day of hypoxia, both untreated or LPA-treated CD34+ cells started to differentiate into mast cells (between 14 and 17%) and neutrophils (between 5 and 8%) (FIG. 3B). Only 78% and 72% of the untreated or LPA-treated CD34+ cells express CD34 marker. CD34 expression is higher in cells that have been exposed to hypoxia than in normoxia conditions since only 6% of the cells cultured in normoxia conditions for 24 h express CD34 marker. […]

Take lysophosphatidic acid [LPA]: the “survival of CD34+ cells vs control (untreated cells)” value in series [1] (1 μM LPA, hypoxia 24 h, P<0.001, n=6) is “statistically significant”. Besides, the viable cells in series [1] (LPA 10 μM, hypoxia 0.5% O2, 24 h, serum free X-Vivo medium) is given as ~69%. Further, the “percentage of viable cells” value in series [1] (hypoxia day 1) amounted to 78%; in series [1] (hypoxia day 3) it was 40%. The “cell survival vs untreated cells” value in series [1] (hypoxia 0.5% O2, 24 h, serum free, P<0.001) is reported as “improved significantly”. For the same substance, the “survival relatively to untreated cells” value in series [1] (hypoxia and serum deprived conditions) is listed as “double their survival”. Further, in series [2], the “cells expressing CD34 marker” value is listed as 72%.

These data come from patent US9868935B2, “Composition and method of stem cells for preservation of cardiac tissue” (CRIOESTAMINAL, SAÚDE E TECNOLOGIA, SA., priority 2012, dated 2018).
